33 substances from US10513547B2, “Peptides and combination of peptides and scaffolds thereof for use in immunotherapy against colorectal carcinoma (CRC) and other cancers” (Immatics Biotechnologies GmbH, priority 2015, dated 2019) can be followed below.

In assay [1] the target is HLA-A*02:01 (Homo sapiens, UniProt P04439, D140Y/D185E/D98H/E176V/E277Q/G131W/G231S/I119V/I121R/I166T/I218V/L300P/L318F/N151K/N90K/P208A/P217A/Q86G/Q94H/R138H/R169H/T345S). Description: MHC binding assay (UV-ligand exchange, beta2m ELISA, peptide exchange yield). The note with it: binding to HLA-A*02:01. In short, it runs like this: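 Peptide–HLA-A*02:01 complexes formed by UV-ligand exchange, in which a UV-cleavable peptide is replaced by the test peptide. Exchange products, diluted 100-fold, were captured on streptavidin plates and detected with HRP anti-β2m ELISA at 450 nm. Yield was quantified against refolded monomer standards at 15-500 ng/ml.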

For assay [2], the system named is CD8+ T-cells. Description: In vitro T-cell priming assay with aAPCs loaded with peptide/MHC and anti-CD28, pMHC multimer readout. The format is cell-based, human. The note with it: for Wells positive [%]: HLA-A*02 restricted peptides, positive wells among evaluable; for donors (in vitro immunogenicity, positive donors) / wells (in vitro immunogenicity, positive wells): HLA class I peptides, healthy donor CD8+ T-cells, multimer staining. The text has this: In order to obtain information regarding the immunogenicity of the TUMAPs of the present invention, the inventors performed investigations using an in vitro T-cell priming assay based on repeated stimulations of CD8+ T-cells with artificial antigen presenting cells (aAPCs) loaded with peptide/MHC complexes and anti-CD28 antibody.
In order to perform in vitro stimulations by artificial antigen presenting cells loaded with peptide-MHC complex (pMHC) and anti-CD28 antibody, the inventors first isolated CD8+ T-cells from fresh HLA-A*02 leukapheresis products via positive selection using CD8 microbeads (Miltenyi Biotec, Bergisch-Gladbach, Germany) of healthy donors obtained from the University clinics Mannheim, Germany, after informed consent.
PBMCs and isolated CD8+ lymphocytes were incubated in T-cell medium (TCM) until use consisting of RPMI-Glutamax (Invitrogen, Karlsruhe, Germany) supplemented with 10% heat inactivated human AB serum (PAN-Biotech, Aidenbach, Germany), 100 U/ml Penicillin/100 μg/ml Streptomycin (Cambrex, Cologne, Germany), 1 mM sodium pyruvate (CC Pro, Oberdorla, Germany), 20 μg/ml Gentamycin (Cambrex). 2.5 ng/ml IL-7 (PromoCell, Heidelberg, Germany) and 10 U/ml IL-2 (Novartis Pharma, Nürnberg, Germany) were also added to the TCM at this step.
Generation of pMHC/anti-CD28 coated beads, T-cell stimulations and readout was performed in a highly defined in vitro system using four different pMHC molecules per stimulation condition and 8 different pMHC molecules per readout condition.
The purified co-stimulatory mouse IgG2a anti human CD28 Ab 9.3 (Jung et al., 1987) was chemically biotinylated using Sulfo-N-hydroxysuccinimidobiotin as recommended by the manufacturer (Perbio, Bonn, Germany). Beads used were 5.6 μm diameter streptavidin coated polystyrene particles (Bangs Laboratories, Illinois, USA).
800.000 beads/200 μl were coated in 96-well plates in the presence of 4×12.5 ng different biotin-pMHC, washed and 600 ng biotin anti-CD28 were added subsequently in a volume of 200 μl. Stimulations were initiated in 96-well plates by co-incubating 1×10^6 CD8+ T-cells with 2×10^5 washed coated beads in 200 μl TCM supplemented with 5 ng/ml IL-12 (PromoCell) for 3 days at 37° C. Half of the medium was then exchanged by fresh TCM supplemented with 80 U/ml IL-2 and incubating was continued for 4 days at 37° C. This stimulation cycle was performed for a total of three times. For the pMHC multimer readout using 8 different pMHC molecules per condition, a two-dimensional combinatorial coding approach was used as previously described (Andersen et al., 2012) with minor modifications encompassing coupling to 5 different fluorochromes. Finally, multimeric analyses were performed by staining the cells with Live/dead near IR dye (Invitrogen, Karlsruhe, Germany), CD8-FITC antibody clone SK1 (BD, Heidelberg, Germany) and fluorescent pMHC multimers. For analysis, a BD LSRII SORP cytometer equipped with appropriate lasers and filters was used. Peptide specific cells were calculated as percentage of total CD8+ cells. Evaluation of multimeric analysis was done using the FlowJo software (Tree Star, Oreg., USA). In vitro priming of specific multimer+ CD8+ lymphocytes was detected by comparing to negative control stimulations.

In the case of “133 (RTFEKIEEV; listed as Homo sapiens) [compound 133]”, the “Peptide exchange (MHC class I binding score, peptide exchange yield)” value (shortened to “Peptide exchange”) in assay [1] is ““++” (≥20% = ++)”. The “Wells positive [%]” value in assay [2] was ““+” (<20% = +)”.

As to “127 (RLAELTVDEFLA; listed as Homo sapiens) [compound 127]”, the “Peptide exchange” value in assay [1] is recorded as ““+++” (≥50 = +++)”. The “Wells positive [%]” value in assay [2] is reported as ““+” (<20% = +)”.

For “123 (KTLERSYLL; listed as Homo sapiens) [compound 123]”, the “Peptide exchange” value in assay [1] was ““++” (≥20% = ++)”. The “Wells positive [%]” value in assay [2] is given as ““+” (<20% = +)”.

Turning to “132 (ALLNAILHSA; listed as Homo sapiens) [compound 132]”, the “Peptide exchange” value in assay [1] was ““+++” (≥50 = +++)”. Besides, in assay [2], the “Wells positive [%]” value is on record as ““+” (<20% = +)”.

In the case of “59 (LLTDNVVKL; listed as Homo sapiens) [compound 59]”, in assay [1], the “Peptide exchange” value is listed as ““+++” (≥50 = +++)”. For the same substance, the “Wells positive [%]” value in assay [2] was ““+” (<20% = +)”.

“10 (RMYNKIFAI; listed as Homo sapiens) [compound 10]”: the “Peptide exchange” value in assay [1] is reported as ““+++” (≥50 = +++)”. The “Wells positive [%]” value in assay [2] is recorded as ““++++” (> = 70% = ++++)”.

On to “220 (KMDPVAYRV; listed as Homo sapiens) [compound 220]”, for which, in assay [2], the “donors (in vitro immunogenicity, positive donors)” value is on record as “++++ (>=70% = ++++)” and the “wells (in vitro immunogenicity, positive wells)” value was “+++ (50% − 69% = +++)”.

Consider “42 (SILDDSFKL; listed as Homo sapiens) [compound 42]”, for which the “Peptide exchange” value in assay [1] was ““++++” (≥75% = ++++)”. Moreover, the “Wells positive [%]” value in assay [2] is reported as ““+” (<20% = +)”.

On to “9 (ILDDHLSRV; listed as Homo sapiens) [compound 9]”, for which the “Peptide exchange” value in assay [1] was ““++” (≥20% = ++)”. The “Wells positive [%]” value in assay [2] was ““+” (<20% = +)”.

Take “136 (KLFDIFSQQV; listed as Homo sapiens) [compound 136]”: the “Peptide exchange” value in assay [1] was ““+++” (≥50 = +++)”. The “Wells positive [%]” value in assay [2] was ““++” (20%-49% = ++)”.

With “150 (RLADLEALKV; listed as Homo sapiens) [compound 150]”, the “Peptide exchange” value in assay [1] is listed as ““+++” (≥50 = +++)”. Also, the “Wells positive [%]” value in assay [2] was ““++″ (20%-49% = ++)”.

For “47 (KLYERCEVV; listed as Homo sapiens) [compound 47]”, in assay [1], the “Peptide exchange” value is recorded as ““++” (≥20% = ++)”. Moreover, in assay [2], the “Wells positive [%]” value was ““+” (<20% = +)”.

In the case of “141 (AVIEHLERL; listed as Homo sapiens) [compound 141]”, the “Peptide exchange” value in assay [1] was ““++++” (≥75% = ++++)”. Besides, the “Wells positive [%]” value in assay [2] is ““+” (<20% = +)”.

Turning to “32 (KLNTETFGV; listed as Homo sapiens) [compound 32]”, the “Peptide exchange” value in assay [1] is reported as ““++” (≥20% = ++)”. In assay [2], the “Wells positive [%]” value is listed as ““++” (20%-49% = ++)”.

As to “7 (YLTRHLAVL; listed as Homo sapiens) [compound 7]”, in assay [1], the “Peptide exchange” value is on record as ““++” (≥20% = ++)”. Also, in assay [2], the “Wells positive [%]” value is on record as ““+” (<20% = +)”.

Consider “12 (ALVQGILERV; listed as Homo sapiens) [compound 12]”, for which the “Peptide exchange” value in assay [1] is listed as ““+++” (≥50 = +++)”. The “Wells positive [%]” value in assay [2] was ““++++” (> = 70% = ++++)”.

“142 (SLVQRVETI; listed as Homo sapiens) [compound 142]”: the “Peptide exchange” value in assay [1] was ““+++” (≥50 = +++)”. The “Wells positive [%]” value in assay [2] was ““+” (<20% = +)”.

For the substance “22 (GLIDEVMVL; listed as Homo sapiens) [compound 22]”, in assay [1], the “Peptide exchange” value is ““+++” (≥50 = +++)”. Further, in assay [2], the “Wells positive [%]” value is ““++” (20%-49% = ++)”.

For the substance “31 (LLYGKYVSV; listed as Homo sapiens) [compound 31]”, the “Peptide exchange” value in assay [1] is ““+++” (≥50 = +++)”. Moreover, the “Wells positive [%]” value in assay [2] is recorded as ““++” (20%-49% = ++)”.

In the case of “19 (RLYTKLLNEA; listed as Homo sapiens) [compound 19]”, the “Peptide exchange” value in assay [1] was ““+++” (≥50 = +++)”. The “Wells positive [%]” value in assay [2] is ““+++” (50%-69% = +++)”.

As for “21 (VLIDHRWVL; listed as Homo sapiens) [compound 21]”, in assay [1], the “Peptide exchange” value was ““+++” (≥50 = +++)”. Besides, in assay [2], the “Wells positive [%]” value was ““+” (<20% = +)”.

As to “17 (ALAAARVEL; listed as Homo sapiens) [compound 17]”, the “Peptide exchange” value in assay [1] was ““+++” (≥50 = +++)”. Also, the “Wells positive [%]” value in assay [2] is recorded as ““++” (20%-49% = ++)”.

For “64 (KTLGKLWRL; listed as Homo sapiens) [compound 64]”, the “Peptide exchange” value in assay [1] was ““++” (≥20% = ++)”. Further, the “Wells positive [%]” value in assay [2] is ““++++” (> = 70% = ++++)”.

For “18 (FLSSLKGGLL; listed as Homo sapiens) [compound 18]”, the “Peptide exchange” value in assay [1] is reported as ““+++” (≥50 = +++)”. In assay [2], the “Wells positive [%]” value is on record as ““+” (<20% = +)”.

For “2 (ALLPRYFFL; listed as Homo sapiens) [compound 2]”, in assay [1], the “Peptide exchange” value is ““++” (≥20% = ++)”. In assay [2], the “Wells positive [%]” value is ““++++” (> = 70% = ++++)”.

Regarding “38 (SLAPTPVSA; listed as Homo sapiens) [compound 38]”, in assay [1], the “Peptide exchange” value is listed as ““++” (≥20% = ++)”. Besides, the “Wells positive [%]” value in assay [2] is recorded as ““+” (<20% = +)”.

“11 (YLFEKTFNM; listed as Homo sapiens) [compound 11]”: in assay [1], the “Peptide exchange” value is ““+++” (≥50 = +++)”. In addition, the “Wells positive [%]” value in assay [2] is listed as ““+” (<20% = +)”.

“5 (WLFDDGGLTL; listed as Homo sapiens) [compound 5]”: in assay [1], the “Peptide exchange” value was ““++++” (≥75% = ++++)”. Moreover, the “Wells positive [%]” value in assay [2] is on record as ““++” (20%-49% = ++)”.

“13 (FLLAEDTKV; listed as Homo sapiens) [compound 13]”: the “Peptide exchange” value in assay [1] is ““+++” (≥50 = +++)”. In addition, the “Wells positive [%]” value in assay [2] is given as ““++” (20%-49% = ++)”.

As to “124 (RVLPPSALQSV; listed as Homo sapiens) [compound 124]”, the “Peptide exchange” value in assay [1] is given as ““+++” (≥50 = +++)”. The “Wells positive [%]” value in assay [2] is ““+” (<20% = +)”.

“1 (ALIKQLFEA; listed as Homo sapiens) [compound 1]”: the “Peptide exchange” value in assay [1] is listed as “″+++” (≥50 = +++)”. The “Wells positive [%]” value in assay [2] was “″+” (<20% = +)”.

As for “37 (GLFAGLGGAGA; listed as Homo sapiens) [compound 37]”, the “Peptide exchange” value in assay [1] was ““+++” (≥50 = +++)”. Moreover, the “Wells positive [%]” value in assay [2] is recorded as ““+” (<20% = +)”.

Consider “219 (FLDEKGRCV; listed as Homo sapiens) [compound 219]”, for which, in assay [2], the “donors (in vitro immunogenicity, positive donors)” value is reported as “+++ (50% − 69% = +++)” and the “wells (in vitro immunogenicity, positive wells)” value is “++ (20% − 49% = ++)”.
